Key:
GIP receptor [1] = conditions: cited from earlier work
GIP receptor [2] = conditions: cited from earlier work; remark: listed apart in the source
islet cells = assay: β-Cell imaging with GIP radioligands, ex vivo pancreas autoradiography; type: in vivo, Sprague-Dawley rats; conditions: i.v., with or without unlabeled GIP(1-30); autoradiography correlated with insulin immunostaining
Excerpt: Animals were euthanized and the pancreas was extracted, immediately frozen, and sectioned. The sections were apposed to radiosensitive films, scanned, and immunostained for insulin.

[3] = cited from earlier work; for biological activity: truncated forms of GIP
[4] = test system: TT cells (human medullary thyroid cancer cells); conditions: 1 nM to 1000 nM GIP for 3 hours, supernatant
Experimental: Calcitonin levels (C, pg/ml) were determined from the cell supernatant using the Calcitonin-kit from Siemens.
TT cells (derived from a human medullary thyroid carcinoma; ATCC Number: CRL-1803) were plated in 24-well plates (100′000 cells per well) and cultured for 48 hours in growth medium (nutrient mixture F12 Ham Kaighn's modification containing L-glutamine and supplemented with 10% fetal bovine serum) at 37° C. and 5% CO2. Subsequently the growth medium was replaced by the serum-free challenge medium (RPMI 1640, 10 mM HEPES and GlutaMax-I) and the cells were incubated for further 48 hours at 37° C. and 5% CO2. […] As negative control cells were treated with challenge medium containing vehicle alone. The cells were incubated for 3 hours at 37° C. and 5% CO2.

GIP receptors = molecular target: T1, GIP receptors (Homo sapiens, UniProt P48546); assay: In vitro GIP receptor autoradiography: displacement of 125I-GIP(1-30) in tissue sections; type: binding; conditions: increasing concentrations of cold peptide; tumor and normal pancreatic islets, all examples
T1 construct: from tissue; host or cells: fresh frozen human tumor tissue (neuroendocrine tumors) and non-neoplastic human tissue (pancreatic islets) from surgical resection
T1 sequence (P48546 22-466): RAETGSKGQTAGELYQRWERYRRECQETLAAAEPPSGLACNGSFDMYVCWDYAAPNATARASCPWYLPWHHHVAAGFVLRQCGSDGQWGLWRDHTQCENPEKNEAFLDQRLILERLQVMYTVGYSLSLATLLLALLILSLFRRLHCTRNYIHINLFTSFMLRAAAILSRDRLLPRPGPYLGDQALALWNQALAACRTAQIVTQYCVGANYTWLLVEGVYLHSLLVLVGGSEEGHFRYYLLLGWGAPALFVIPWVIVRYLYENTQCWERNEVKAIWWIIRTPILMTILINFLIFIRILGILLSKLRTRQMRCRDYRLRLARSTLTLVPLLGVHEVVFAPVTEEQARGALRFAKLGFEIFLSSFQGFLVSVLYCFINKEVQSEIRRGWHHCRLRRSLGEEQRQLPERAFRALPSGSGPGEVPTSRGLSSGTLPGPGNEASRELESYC
Experimental: It was radiolabeled by the lactoperoxidase method and purified by HPLC (Anawa, Wangen, Switzerland). The two lodo-Tyrosine analogues (peak 1 iodinated at Tyr^1 and peak 2 iodinated at Tyr^10) were analyzed by LC-ESI-MS-MS (R. Brunisholz, Functional Genomics Center Zürich, ETHZ). […] After incubation, the slides were washed five times in ice-cold Tris-HCl buffer (170 mM; pH 8.2) containing 0.25% BSA and twice in ice-cold Tris-HCl buffer without BSA. The slides were dried for 15 minutes under a stream of cold air and then exposed to Kodak films Biomax MR® for seven days at 4° C. The signals on the films were analyzed in correlation with morphology using corresponding H&E stained tissue slides. The receptor density was quantitatively assessed using tissue standards for iodinated compounds (Amersham, Aylesbury, UK) and a computer-assisted image processing system (Analysis Imaging System, Interfocus, Mering, Germany).

Q: For “GIP19-30: C-terminal GIP fragment capable of receptor binding (QQDFVNWLLAQK; Gastric inhibitory polypeptide; UniProt P09681 70-81, looked up, fragment)”, which receptor binding (GIP receptor [1]) is on record?
A: The receptor binding was “capable of receptor binding”.

Q: What about the “activation of adenylyl cyclase” value (GIP receptor [2]) of the same substance?
A: The value was “activation of adenylyl cyclase”.

Q: Which “localisation of radioligand binding in pancreas” value (islet cells) does the source give for “^111In-DOTA-GIP(1-30): GIP(1-30) carrying 111In complexed through DOTA chelator; GIP radioligand for β-cell imaging” here?
A: Its value is “restricted to islet cells”.

Q: Which biological activity [3] does the source give for “GIP(1-30): truncated form of GIP; cold human GIP(1-30), parent peptide of the radioligand (YAEGTFISDYSIAMDKIHQQDFVNWLLAQK; Gastric inhibitory polypeptide; UniProt P09681 52-81, looked up, fragment)” here?
A: The biological activity was “retain a high degree of biological activity”.

Q: For “GIP7-30-NH2: GIP fragment amide binding with high affinity, antagonist”, which receptor binding (GIP receptor [1]) is on record?
A: The receptor binding was “high affinity”.

Q: And the “functional mode at the GIP receptor” value (GIP receptor [2])?
A: Its value is “act as antagonists”.

Q: With “glucose-dependent insulinotropic polypeptide [GIP]” as the substance, how does the calcitonin release [4] read?
A: The calcitonin release was “stimulates calcitonin release”.

Q: Which insulinotropic activity ([3]; product of DPP-IV cleavage) does the source give for “GIP3-42: peptide resulting from cleavage of GIP by DPP-IV; antagonist (EGTFISDYSIAMDKIHQQDFVNWLLAQKGKKNDWKHNITQ; Gastric inhibitory polypeptide; UniProt P09681 54-93, looked up, fragment)” here?
A: The insulinotropic activity was “lacking insulinotropic activity”.

Q: What about the “functional mode at the GIP receptor” value (GIP receptor [2]) of the same substance?
A: Its value is “antagonist of GIP1-42 induced cAMP production”.

Q: Which results are given for “GIP1-14: GIP fragment capable of receptor binding (YAEGTFISDYSIAM; Gastric inhibitory polypeptide; UniProt P09681 52-65, looked up, fragment)”?
A: receptor binding (GIP receptor [1]): capable of receptor binding; activation of adenylyl cyclase (GIP receptor [2]): activation of adenylyl cyclase

Q: With “GLP-2: GLP-2 receptor selective agonist (Bachem)” as the substance, how does the “displacement of 125I-GIP(1-30) (affinity)” value (GIP receptors) read?
A: The value was “not displaced”.

Q: Which biological activity [3] does the source give for “GIP1-39: truncated form of GIP (YAEGTFISDYSIAMDKIHQQDFVNWLLAQKGKKNDWKHN; Gastric inhibitory polypeptide; UniProt P09681 52-90, looked up, fragment)” here?
A: Its biological activity is “retain a high degree of biological activity”.

Q: Which “displacement of 125I-GIP(1-30) (affinity)” value (GIP receptors) does the source give for “glucagon(1-29): glucagon receptor selective agonist (Bachem)” here?
A: The value was “not displaced”.

Q: For “GIP6-30: GIP fragment binding with high affinity, antagonist (FISDYSIAMDKIHQQDFVNWLLAQK; Gastric inhibitory polypeptide; UniProt P09681 57-81, looked up, fragment)”, which receptor binding (GIP receptor [1]) is on record?
A: Its receptor binding is “high affinity”.

Q: What about the “functional mode at the GIP receptor” value (GIP receptor [2]) of the same substance?
A: Its value is “act as antagonists”.

— patent publication US20140377171A1, “Imaging and Treatment of Neuroendocrine Tumors with Glucose - Dependent Insulinotropic Polypeptide or Analogues or Antagonists Thereof” (priority 2011, published 2014)
